Measured values from patent US10040838B2, “CRHR2 peptide agonists and uses thereof” (JANSSEN PHARMACEUTICA NV, priority 2008, dated 2018).
Residues, ends and D or L forms follow the SMILES beside them. No end group written: not given here. *: point of attachment. Succinimide(1-Et,3-yl) = CCN1C(=O)CC(*)C1=O

Biological target: T1, human CRHR2 (Homo sapiens, UniProt Q13324)
T1 construct: expressed in transfected cells
T1 sequence (Q13324 1-411): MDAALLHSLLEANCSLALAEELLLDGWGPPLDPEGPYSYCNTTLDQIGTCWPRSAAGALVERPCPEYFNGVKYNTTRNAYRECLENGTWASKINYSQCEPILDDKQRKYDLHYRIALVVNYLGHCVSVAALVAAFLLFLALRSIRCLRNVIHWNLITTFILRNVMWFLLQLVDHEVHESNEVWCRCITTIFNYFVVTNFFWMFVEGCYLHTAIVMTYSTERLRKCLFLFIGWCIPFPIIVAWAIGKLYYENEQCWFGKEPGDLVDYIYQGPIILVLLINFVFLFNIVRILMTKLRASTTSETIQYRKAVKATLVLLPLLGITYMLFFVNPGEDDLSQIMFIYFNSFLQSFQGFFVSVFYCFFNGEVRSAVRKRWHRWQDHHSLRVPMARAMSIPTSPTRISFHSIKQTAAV
Experiment: cAMP assay in h-CRHR2 transfected SK-N-MC cells
Type: cell-based
Conditions: for Log DR: Table 13, h-SCP control pA50 minus test compound pA50 within same assay batch; for nH: Hill slope
Protocol: The concentration required for 50% maximum effect (A50) was 0.4 nM.
Human CRHR1 (accession number X72304) or CRHR2 (accession number U34587) were cloned into pcDNA3.1/Zeo expression vector and stably transfected into SK-N-MC cells by electroporation. Cells were maintained in MEM w/Earl's Salt with 10% FBS, 50 I.U. penicillin, 50 μg/ml streptomycin, 2 mM L-glutamine, 1 mM sodium pyruvate and 0.1 mM nonessential amino acids, 600 μg/ml G418. Cells were grown at 37° C. in 5% CO2.
Cells were plated in 96-well tissue culture dishes (Biocoat from BD Biosciences) overnight at 50,000 cell/well. Cells were washed with PBS then resuspended in DMEM F-12 without phenol red, containing 10 μM isobutylmethylxanthine (IBMX). Cells were incubated with the peptides at concentrations ranging from 1 pM to 10 μM for 60 min at 37° Celsius. […] Forskolin (10 μM), a direct stimulant of adenylate cyclase, was used as positive control. The assays were stopped by the addition of 0.5 M HCl and mixing by orbital rotation for 2 h at 4° Celsius.
To assess the activity of the inventive peptide at the CRHR2, an intracellular cAMP measurement test using a Flash plate radioactive assay (Catalog No. Cus56088; Perkin Elmer, MA, U.S.A.) was employed.
Transfected SK-N-MC cells were plated in 96-well Biocoat tissue culture dishes (BD Biosciences, San Jose, Calif., U.S.A) overnight at 50,000 cell/well. Cells were first washed with PBS and then suspended with DMEM/F-12 without phenol red, containing […]. Suspended cells were transferred into a 96-well flash plate coated with scintillant fluid. Cells were incubated with peptides ranging from […], for 60 min, at 37° Celsius. Forskolin at 10 μM was used as positive control. After ligand stimulation, cells were lysed by the addition of 0.5M HCl and mixed by orbital rotation for 2 h at 4° Celsius in order to release intracellular cAMP into the media.
Media containing released intracellular cAMP was transferred to a 96-well flash plate coated with scintillant fluid containing an anti-cAMP antibody. In this assay, intracellular cAMP competes with ^125I-labeled cAMP binding to the antibody. To generate a standard curve, cAMP ranging from 2.5 to 250 pmoles/ml was included in the experiment. [^125I]-cAMP was measured on a TopCount scintillation counter (Perkin Elmer, MA, U.S.A).
Individual agonist concentration-response curve data were fitted to the Hill equation, see formula below, using GraphPad Prism (Graphpad Software, La Jolla, Calif., U.S.A.), to provide estimates of agonist concentration needed to generate one-half maximal response (A50), and the maximal asymptote (α) and Hill slope (nH) parameters. In this equation, [A] is the agonist concentration and E is the measured effect:
For display purposes the mean fitted parameter estimates were used to generate a single E/[A] curve shown superimposed on the mean experimental data. Potency estimates for agonists, pA50, are expressed as the negative logarithm of the midpoint of each curve and listed with their standard error of measurement (SEM). Logarithm base 10 of the agonist dose ratio (Log DR) values were calculated by subtraction of the test compound pA50 value from the corresponding h-SCP (SEQ ID NO:1) control pA50 value within the same assay batch. The SEM values of the Log DR values are given by the square root of the sum of the squared SEM values of the h-SCP (SEQ ID NO:1) control and test compound pA50 values.
Human and rat peptides (see Table 10) were used on the stimulation of h-CRHR1 or h-CRHR2 transfected SK-N-MC cells in the cAMP flash plate assay. Peptides were incubated for 1 hr at 37° Celsius. Curves were calculated using non-linear regression sigmoidal concentration-response analysis calculation in GraphPad Prism. The so obtained pA50 values are shown in Table 11 in addition to literature values. […]

Compound	Log DR	other results
TKFTLSLDVPTNIMNLLFNIAKAKNLCAQAAANAHLMAQI-NH2 [SEQ ID NO: 28, TKFTLSLDVPTNIMNLLFNIAKAKNLCAQAAANAHLMAQI-NH2]	0.16	
TKFTLSLDVPTNIMNLLFCIAKAKNLRAQAAANAHLMAQI-NH2 [SEQ ID NO: 20, TKFTLSLDVPTNIMNLLFCIAKAKNLRAQAAANAHLMAQI-NH2]	0.52	
TKFTLSLDVPTNIMNLLFNIAKAKNLRACAAANAHLMAQI-NH2 [SEQ ID NO: 30, TKFTLSLDVPTNIMNLLFNIAKAKNLRACAAANAHLMAQI-NH2]	1.28	
CC[C@H](C)[C@H](NC(=O)[C@H](CCC(N)=O)NC(=O)[C@H](C)NC(=O)[C@H](CCSC)NC(=O)[C@H](CC(C)C)NC(=O)[C@H](Cc1c[nH]cn1)NC(=O)[C@H](C)NC(=O)[C@H](CC(N)=O)NC(=O)[C@H](CSC1CC(=O)N(CC)C1=O)NC(=O)[C@H](C)NC(=O)[C@H](C)NC(=O)[C@H](CCC(N)=O)NC(=O)[C@H](C)NC(=O)[C@H](CCCNC(=N)N)NC(=O)[C@H](CC(C)C)NC(=O)[C@H](CC(N)=O)NC(=O)[C@H](CCCCN)NC(=O)[C@H](C)NC(=O)[C@H](CCCCN)NC(=O)[C@H](C)NC(=O)[C@@H](NC(=O)[C@H](CC(N)=O)NC(=O)[C@H](Cc1ccccc1)NC(=O)[C@H](CC(C)C)NC(=O)[C@H](CC(C)C)NC(=O)[C@H](CC(N)=O)NC(=O)[C@H](CCSC)NC(=O)[C@@H](NC(=O)[C@H](CC(N)=O)NC(=O)[C@@H](NC(=O)[C@@H]1CCCN1C(=O)[C@@H](NC(=O)[C@H](CC(=O)O)NC(=O)[C@H](CC(C)C)NC(=O)[C@H](CO)NC(=O)[C@H](CC(C)C)NC(=O)[C@@H](NC(=O)[C@H](Cc1ccccc1)NC(=O)[C@H](CCCCN)NC(=O)[C@@H](N)[C@@H](C)O)[C@@H](C)O)C(C)C)[C@@H](C)O)[C@@H](C)CC)[C@@H](C)CC)C(N)=O (stereo partly drawn) [SEQ ID NO: 45, TKFTLSLDVPTNIMNLLFNIAKAKNLRAQAAC(-NES)NAH LMAQI-NH2] (H-TKFTLSLDVPTNIMNLLFNIAKAKNLRAQAAC(Succinimide(1-Et,3-yl))NAHLMAQI-NH2; N-terminus assumed)	−0.01	
TKFTLSLDVPTNIMNLLFNIAKAKNLRC(-IA-PEG MW20000)QA AANAH LMAQI-NH2 (TKFTLSLDVPTNIMNLLFNIAKAKNLRC(IA‑PEG 20 kDa)QAAANAHLMAQI-NH2) [SEQ ID NO: 102]		pA50 (Table 14): 8.15; αmax (Table 14, % of the maximum response obtained to h-SCP): 111.1%; nH (Table 14): 1.05; pA50 approximate value (in the presence of 100 nM anti-sauvagine-30, maximal response constrained to 100%): ~6.89
TKFTCSLDVPTNIMNLLFNIAKAKNLRAQAAANAHLMAQI-NH2 [SEQ ID NO: 6, TKFTCSLDVPTNIMNLLFNIAKAKNLRAQAAANAHLMAQI-NH2]	0.61	
TKFTLSLDVPTNIMNLLFNIAKAKNLRAQAAANAHLCAQI-NH2 [SEQ ID NO: 38, TKFTLSLDVPTNIMNLLFNIAKAKNLRAQAAANAHLCAQI-NH2]	>2.95	
TKFTLSLDVPTNIMNLLFNIAKAKNLRAQAAANAHLMAQI-OH [SEQ ID NO: 113, TKFTLSLDVPTNIMNLLFNIAKAKNLRAQAAANAHLMAQI, reference compound]		nH (Table 12): 1.07; fold less potent than the amidated parent peptide (versus h-SCP (SEQ ID NO:1)): approximately 200 fold
TKFTLSLDVPTNIMNLLFNIAKAKNLRCQAAANAHLMAQI-NH2 [SEQ ID NO: 29, TKFTLSLDVPTNIMNLLFNIAKAKNLRCQAAANAHLMAQI-NH2]	0.00	
CC[C@H](C)[C@H](NC(=O)[C@H](CCC(N)=O)NC(=O)[C@H](C)NC(=O)[C@H](CCSC)NC(=O)[C@H](CC(C)C)NC(=O)[C@H](Cc1c[nH]cn1)NC(=O)[C@H](C)NC(=O)[C@H](CC(N)=O)NC(=O)[C@H](C)NC(=O)[C@H](C)NC(=O)[C@H](C)NC(=O)[C@H](CCC(N)=O)NC(=O)[C@H](C)NC(=O)[C@H](CCCNC(=N)N)NC(=O)[C@H](CSC1CC(=O)N(CC)C1=O)NC(=O)[C@H](CC(N)=O)NC(=O)[C@H](CCCCN)NC(=O)[C@H](C)NC(=O)[C@H](CCCCN)NC(=O)[C@H](C)NC(=O)[C@@H](NC(=O)[C@H](CC(N)=O)NC(=O)[C@H](Cc1ccccc1)NC(=O)[C@H](CC(C)C)NC(=O)[C@H](CC(C)C)NC(=O)[C@H](CC(N)=O)NC(=O)[C@H](CCSC)NC(=O)[C@@H](NC(=O)[C@H](CC(N)=O)NC(=O)[C@@H](NC(=O)[C@@H]1CCCN1C(=O)[C@@H](NC(=O)[C@H](CC(=O)O)NC(=O)[C@H](CC(C)C)NC(=O)[C@H](CO)NC(=O)[C@H](CC(C)C)NC(=O)[C@@H](NC(=O)[C@H](Cc1ccccc1)NC(=O)[C@H](CCCCN)NC(=O)[C@@H](N)[C@@H](C)O)[C@@H](C)O)C(C)C)[C@@H](C)O)[C@@H](C)CC)[C@@H](C)CC)C(N)=O (stereo partly drawn) [SEQ ID NO: 48, TKFTLSLDVPTNIMNLLFNIAKAKNC(-NES)RAQA AANAH LMAQI-NH2] (H-TKFTLSLDVPTNIMNLLFNIAKAKNC(Succinimide(1-Et,3-yl))RAQAAANAHLMAQI-NH2; N-terminus assumed)	0.03	
TKFTLSLDVPTNICNLLFNIAKAKNLRAQAAANAHLMAQI-NH2 [SEQ ID NO: 15, TKFTLSLDVPTNICNLLFNIAKAKNLRAQAAANAHLMAQI-NH2]	0.90	
TLSLDVPTNIMNLLFNIAKAKNLRAQAAANAHLMAQI-NH2 [SEQ ID NO: 108, TLSLDVPTNIMNLLFNIAKAKNLRAQAAANAHLMAQI-NH2]		nH (Table 12): 0.82
TKFCLSLDVPTNIMNLLFNIAKAKNLRAQAAANAHLMAQI-NH2 [SEQ ID NO: 5, TKFCLSLDVPTNIMNLLFNIAKAKNLRAQAAANAHLMAQI-NH2]	0.76	
TCFTLSLDVPTNIMNLLFNIAKAKNLRAQAAANAHLMAQI-NH2 [SEQ ID NO: 3, TCFTLSLDVPTNIMNLLFNIAKAKNLRAQAAANAHLMAQI-NH2]	0.72	
